{"source": "patent US11603570B2", "about": "“Methods for the detection and treatment of leukemias that are responsive to DOT1L inhibition” (MEMORIAL SLOAN KETTERING CANCER CENTER, priority 2013, dated 2023)", "key": {"MV4-11": {"system": "MV4-11", "experiment": "Cell proliferation, MV4-11", "format": "cell-based", "conditions": "Homo sapiens; MLL-translocated line MV4-11; FIG. 2"}, "EOL-1": {"system": "EOL-1", "experiment": "Proliferation of MLL-PTD cell line EOL-1", "format": "cell-based, human", "conditions": "10 μM, 10-day period"}, "H3K79me2": {"system": "H3K79me2", "experiment": "H3K79me2 Western blot in MLL-AF9 transformed cells", "format": "cell-based, mouse", "conditions": "10 μM, 10 days, FIG. 8A"}, "[1]": {"system": "Npm1^cA/+Rosa^SB/+ AML cells", "experiment": "Leukemia initiating potential in vivo, mice injected with pre-treated Npm1^cA/+Rosa^SB/+ cells", "set-up": "species or system mouse", "from_the_text": "FIGS. 13A-13C show the effects of DOT1L inhibition on leukemia initiating potential in vivo. […] FIG. 13B indicates differentiation in EPZ00477 treated cells (and not in cells exposed to only DMSO). […] Numbers of white blood cells and platelets are expressed as number of cells per microliter (μL) of blood. Hemoglobin levels are expressed in grams per deciliter (g/dl).\nFurthermore, peripheral blood smears stained with Wright-Giemsa stain indicate differentiation in EPZ00477 treated cells (and not in cells exposed to only DMSO) (FIG. 13B)."}, "[2]": {"system": "MLL-AF9 transformed cells", "experiment": "Cell cycle arrest and apoptosis of MLL-AF9 transformed cells", "format": "cell-based, murine"}, "HOXA9 and MEIS1": {"system": "HOXA9 and MEIS1", "conditions": "cited from earlier work"}, "[3]": {"system": "MLL germline leukemia cell lines", "conditions": "cited from earlier work"}, "MUTZ-11": {"system": "MUTZ-11", "experiment": "Proliferation of MLL-PTD cell line MUTZ-11", "conditions": "10 μM, 10-day period; FIG. 3A"}, "OCI-AML3": {"system": "OCI-AML3", "experiment": "Differentiation marker CD11b in OCI-AML3 cells", "conditions": "10 μM, days 4, 7, and 10; FIG. 11B"}, "[4]": {"system": "Npm1^cA/−Flt3^ITD/+ AML cells", "experiment": "Survival of C57/BL6 mice injected with pre-treated Npm1^cA/−Flt3^ITD/+ cells"}, "[5]": {"conditions": "day 19 complete blood counts, FIG. 13C"}}, "note": "“Also recorded” adds a separate entry of the source.", "data": [{"smiles": "CC(C)N(CCCNC(=O)Nc1ccc(C(C)(C)C)cc1)C[C@H]1O[C@@H](n2ccc3c(N)ncnc32)[C@H](O)[C@@H]1O", "note": "[EPZ004777, 1-(3-((((2R,3S,4R,5R)-5-(4-Amino-7H-pyrrolo[2,3-d]pyrimidin-7-yl)-3,4-dihydroxytetrahydrofuran-2-yl)methyl)(isopropyl)amino)propyl)-3-(4-(tert-butyl)phenyl)urea]", "values": [{"measurement": "IC50", "setting": "MV4-11", "result": 170, "unit": "nM"}, {"measurement": "proliferation", "setting": "EOL-1", "result": "significantly inhibited"}, {"measurement": "global H3K79me2 level (Western blotting)", "setting": "H3K79me2", "result": "completely abrogated; also recorded: decrease"}, {"measurement": "survival (Kaplan-Meier)", "setting": "[1]; cells pre-treated 6 days with 10 μM, FIG. 13A", "result": "extended survival time; also recorded: prolonged survival"}, {"measurement": "peripheral blood smears, Wright-Giemsa stain", "setting": "[1]; day 19, cells pre-treated 6 days with 10 μM, FIG. 13B", "result": "differentiation"}, {"measurement": "levels of hemoglobin", "setting": "[1]; [5]", "result": "slight increase"}, {"measurement": "number of white blood cells", "setting": "[1]; [5]", "result": "significant reduction"}, {"measurement": "platelet counts", "setting": "[1]; [5]", "result": "slight increase"}, {"measurement": "response to DOT1L inhibition", "setting": "[2]", "result": "cell cycle arrest and apoptosis"}, {"measurement": "MLL fusion driven gene expression, including HOXA9 and MEIS1", "setting": "HOXA9 and MEIS1", "result": "transcriptional repression; also recorded: dose-dependent inhibition"}, {"measurement": "anti-proliferative effect", "setting": "[3]; MLL germline leukemia cell lines", "result": "no anti-proliferative effect"}, {"measurement": "factor by which leukemic cells lacking MLL fusions are less sensitive", "setting": "[3]", "result": "approximately 100"}, {"measurement": "proliferation (cell counts)", "setting": "MUTZ-11", "result": "significantly inhibited"}, {"measurement": "differentiation, cell surface marker CD11b expression", "setting": "OCI-AML3", "result": "increased differentiation"}, {"measurement": "day on which animals start dying", "setting": "[4]; cells treated with 10 μM, FIG. 13 A", "result": 31, "unit": "days"}, {"measurement": "survival time", "setting": "[4]; treatment of the AML cells with the DOT1L inhibitor", "result": "prolonged survival time"}]}]}
